Laboratory results from US20250353825A1, “CANNABICYCLOL DERIVATIVES AND PREPARATION METHODS THEREOF” (priority 2023, published 2025).
≈ marks a conversion by molar mass, not a printed value.

How the values were obtained:
Assay type in all cases: cell-based
HEC18 = test: MTS cell viability assay, HEC18; details: Table 7, 72 hours; read-out: IC50 against HEC18
Experimental: (§1) Primary viability screening: (1) the synthesized compounds 3a to 13d were respectively dissolved in DMSO to prepare a 40 μg/mL cannabicyclol and cannabicyclol derivative solutions.
(§2) (2) A control group: a 200 μL DMSO solvent.
(§3) (3) The solutions of compounds 3a to 13d were diluted in a twofold gradient to obtain cannabicyclol and cannabicyclol derivative solutions at concentrations of 40 μg/mL, 20 μg/mL, 10 μg/mL, 5 μg/mL, 2.5 μg/mL, 1.25 μg/mL, and 0.625 μg/mL, and 0.3125 μg/mL, respectively.
(§4) (4) Three glioblastoma stem cells (GSC-3, GSC-12, and GSC-18), three pancreatic cancer cell-derived stem cells (PANC-1-CSC, BXPC-3-CSC, and ASPC1-CSC), three liver cancer cell-derived stem cells (HepG2-CSC, MHCC97H-CSC, and SMMC7721-CSC), HEK-293T cells, 16 tumor cells (U251, U87, T98G, PANC1, BXPC3, ASPC1, HepG2, MHCC97H, SMMC7721, PC3, SKOV3, MDA-MB231, A549, HCT116, HEC-1B, MKN28), and differentiated glioblastoma stem cells (GSC-3diff and GSC-12diff) derived from GSC-3 and GSC-12 (all of the cells were provided by the Laboratory of Tumor Animal Model Preparation and Application Research, West China Hospital, Sichuan University) were inoculated into a 96-well plate at a concentration of 2×10^4 cells/well, and 100 μL of culture medium was then added to each well; […]
(§5) (10) The absorbance value at 490 nm was measured on an enzyme labeling apparatus, and the IC50 value was calculated.

U87 = test: MTS cell viability assay, U87; details: Homo sapiens, U-87 MG; Table 7, 72 hours; read-out: IC50 against U87
Experimental: as §1, §2, §3, §4, §5

HepG2-CSC [1] = test: MTS cell viability assay, HepG2-CSC; details: Table 6, tumor stem cell, 72 hours; read-out: IC50 against HepG2-CSC
Experimental: as §1, §2, §3, §4, §5

SMMC7721-CSC [2] = test: MTS cell viability assay, SMMC7721-CSC; details: Table 6, tumor stem cell, 72 hours; read-out: IC50 against SMMC7721-CSC
Experimental: as §1, §2, §3, §4, §5

U251 = test: MTS cell viability assay, U251
Experimental: as §1, §2, §3
(4) Three glioblastoma stem cells (GSC-3, GSC-12, and GSC-18), three pancreatic cancer cell-derived stem cells (PANC-1-CSC, BXPC-3-CSC, and ASPC1-CSC), three liver cancer cell-derived stem cells (HepG2-CSC, MHCC97H-CSC, and SMMC7721-CSC), HEK-293T cells, 16 tumor cells (U251, U87, T98G, PANC1, BXPC3, ASPC1, HepG2, MHCC97H, SMMC7721, PC3, SKOV3, MDA-MB231, A549, HCT116, HEC-1B, MKN28), and differentiated glioblastoma stem cells (GSC-3diff and GSC-12diff) derived from GSC-3 and GSC-12 (all of the cells were provided by the Laboratory of Tumor Animal Model Preparation and Application Research, West China Hospital, Sichuan University) were inoculated into a 96-well plate at a concentration of 2×10^4 cells/well, and 100 μL of culture medium was then added to each well;
(5) 2) HEK-293T, GSC-3diff, GSC-12diff, and the 16 tumor cells were added with DMEM, 10% FBS, and 1% double antibody culture medium. Cancer stem cells (CSCs) were added with serum-free stem cell medium consisting of DMEM/F12, EGF (20 ng/mL), bFGF (20 ng/mL), B27 (1×), and 1% double antibody culture medium.
(6) Inoculated cells were put into a cell culture incubator for 24 hours, and after the cells were well adhered to the wall, the culture medium in the 96-well plate was discarded.
(7) 200 μL cannabicyclol and cannabicyclol derivatives solutions at different concentrations were added to the cultured cells.
(8) The experiment was set up with 3 replicates.
(9) The 96-well plate was placed in a cell culture incubator, and incubation was continued at 37° C. and 5% CO2 for 72 hours. Then, 100 μL of cannabicyclol and cannabicyclol derivative solution per well was discarded (100 μL of DMSO solvent was discarded for the control group), and 20 μL of LMTS (CellTiter AQueous Non-Radioactive Cell Proliferation Assay, #G3581) was mixed and continued to be placed in the cell incubator for 2 hours of incubation.
as §5

HepG2-CSC [3] = test: Soft agar colony (clone) formation, HepG2-CSC; details: crystal violet, FIG. 4, compound 3a 0, 5 and 5 [sic] μg/mL
Experimental: (§6) […] of low-melting-point agarose was dissolved in 12.5 mL of ddH2O to prepare a 3.2% low-melting-point agarose gel. The low-melting-point agarose gel was sterilized by autoclaving at 121° C. and 0.12 MPa for 20 minutes. After sterilization, the low-melting-point agarose gel was maintained at 60° C. in a drying oven for further use.
(§7) 1.75 mL of 3.2% sterile low-melting-point agarose gel was taken, 5.25 mL of the corresponding complete medium was added, and the two were mixed thoroughly using a pipette to prepare a base gel at a concentration of 0.8%.
(§8) 1 mL of the base gel was added to each well of a 6-well plate, ensuring that the base gel evenly covered the bottom of each well. The plate was placed at 4° C. for 5 minutes to allow the gel to solidify. After the gel had fully solidified, the plate was warmed at 37° C. for 5 minutes.
(§9) 6 cells/cell lines (U251, SMMC7721, GSC-3, GSC-12, SMMC7721-CSC, and HepG2-CSC) were individually digested with 1× trypsin for 3 minutes. The corresponding complete culture medium (same as in the application example 1) was added to terminate the digestion. Cells were centrifuged at 1000 rpm for 3 minutes, and the cells were collected and counted. A total of 5×10^3 cells were added to each well, each group was set up with three replicates. […]

ASPC1-CSC = test: MTS cell viability assay, ASPC1-CSC; details: Table 6, tumor stem cell, 72 hours; read-out: IC50 against ASPC1-CSC
Experimental: as §1, §2, §3, §4, §5

MHCC97 = test: MTS cell viability assay, MHCC97; details: Homo sapiens, Table 7, 72 hours, read-out: IC50 against MHCC97
Experimental: as §1, §2, §3, §4, §5

SMMC7721-CSC [4] = test: Soft agar colony (clone) formation, SMMC7721-CSC; details: crystal violet, FIG. 4, compound 3a 0, 5 and 5 [sic] μg/mL
Experimental: as §6, §7, §8, §9

[5] = test system: 9 types of cancer stem cells; test: MTS cell viability assay, summary over 9 types of cancer stem cells; details: FIG. 3, CBL solution at different concentrations
Experimental: as §1, §2, §3, §4, §5

CCCCCc1cc(O)c2c(c1)OC1(C)CCC3C1C2C3(C)C (centres unmarked) [Compound 3a, cannabicyclol]
IC50 (HEC18): > 40 µg/mL
IC50 (U87): > 40 µg/mL
IC50 (HepG2-CSC [1]): 2.37 µg/mL (≈ 7.54 µM)
IC50 (SMMC7721-CSC [2]): 3.85 µg/mL (≈ 12.2 µM)
IC50 (U251; Homo sapiens, U-251, 72 h, read-out: IC50 against U251): > 40 µg/mL
Cell viability in U251 (%) (U251; primary viability screening, 72 hours, MTS, test concentration not stated): 54%
colony formation of HepG2-CSC (HepG2-CSC [3]): significantly inhibited
IC50 (ASPC1-CSC): 14.6 µg/mL (≈ 46.3 µM)
IC50 (MHCC97): > 40 µg/mL
colony formation of SMMC7721-CSC (SMMC7721-CSC [4]): significantly inhibited
cell viability of 9 types of cancer stem cells at different concentrations [5]: decreased with increasing concentrations
